Experiments:
Assay type in all cases: in vivo
[1] = system: barnyardgrass (Echinochloa crus-galli); test: Test A greenhouse herbicide test, pre- and postemergence
Method in brief: (§1)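 Visual injury ratings, 0 (no effect) to 100 (complete control), versus untreated plants after roughly 10 d in a greenhouse. Compounds, formulated in a surfactant-containing non-phytotoxic solvent, were sprayed on loam–sand soil after sowing (pre) or on one- to two-leaf plants 2–10 cm tall (post).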

[2] = system: foxtail, giant (giant foxtail, Setaria faberii); test: as above
Method in brief: as §1

kochia (Kochia scoparia) = test: as above
Method in brief: as §1

[3] = system: pigweed (Amaranthus retroflexus); test: as above
Method in brief: as §1

[4] = system: ragweed (common ragweed, Ambrosia elatior); test: as above
Method in brief: as §1

[5] = system: ryegrass, Italian (Italian ryegrass, Lolium multiflorum); test: as above
Method in brief: as §1

[6] = system: wheat (Triticum aestivum); test: as above; conditions: Postemergence; for Plant response rating, Wheat: 125 g ai/ha, 0 to 100 scale where 0 is no effect and 100 is complete control; for Wheat plant response rating: 500 g ai/ha, 0 to 100 scale, 0 is no effect, 100 is complete control
Method in brief: as §1

[7] = system: blackgrass (Alopecurus myosuroides); test: Test A greenhouse herbicide test, postemergence; conditions: for Plant response rating, Blackgrass: 125 g ai/ha, visual rating after approx. 10 d, 0 to 100 scale (0 no effect, 100 complete control); for Blackgrass plant response rating: 500 g ai/ha, 0 to 100 scale, 0 is no effect, 100 is complete control
Method in brief: (§2)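 Scores are visual injury ratings from 0 (no effect) to 100 (complete control) versus untreated plants, taken roughly 10 d after treatment in the greenhouse. Treatment was postemergence, on one- to two-leaf plants 2–10 cm high growing in a loam soil/sand mix.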

[8] = system: galium (catchweed bedstraw, Galium aparine); test: Test A greenhouse herbicide test, postemergence; conditions: for Plant response rating, Galium: 125 g ai/ha, visual rating after approx. 10 d, 0 to 100 scale (0 no effect, 100 complete control); for Galium plant response rating: 500 g ai/ha, 0 to 100 scale, 0 is no effect, 100 is complete control
Method in brief: as §2

corn (Zea mays) = test: Test C greenhouse herbicide test, pre- and postemergence
Method in brief: (§3)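 Greenhouse pots; pre-em on seeded loam:sand blend, post-em on 2–18 cm plants (1–4 leaf) in sphagnum peat/vermiculite medium. Formulation: non-phytotoxic solvent + surfactant. Read-out: visual % control (0–100) vs controls at 13–15 d.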

[9] = system: ryegrass, Italian (Italian ryegrass, Lolium multiflorum); test: as above
Method in brief: as §3

[10] = Postemergence, 125 g ai/ha, visual rating after approx. 10 d, 0 to 100 scale (0 no effect, 100 complete control)
[11] = Postemergence, 500 g ai/ha, 0 to 100 scale, 0 is no effect, 100 is complete control
[12] = Preemergence, 125 g ai/ha, 0 to 100 scale where 0 is no effect and 100 is complete control
[13] = Preemergence, 500 g ai/ha, 0 to 100 scale, 0 no effect, 100 complete control
[14] = Postemergence, 125 g ai/ha, 0 to 100 scale where 0 is no effect and 100 is complete control
[15] = Postemergence, 31 g ai/ha, 0 to 100 scale (0 no effect, 100 complete control)
[16] = Postemergence, 125 g ai/ha, scale 0 to 100, 0 is no effect, 100 is complete control
[17] = Postemergence, 250 g ai/ha, scale 0 to 100, 0 no effect, 100 complete control, 13 to 15 d
[18] = Preemergence, 31 g ai/ha, scale 0 to 100, 0 is no effect, 100 is complete control
[19] = Preemergence, 62 g ai/ha, scale 0 to 100, 0 is no effect, 100 is complete control
[20] = Preemergence, 125 g ai/ha, scale 0 to 100, 0 is no effect, 100 is complete control
[21] = Preemergence, 250 g ai/ha, scale 0 to 100 (0 no effect, 100 complete control)
[22] = postemergence, 62 g ai/ha, scale 0 to 100, 0 no effect, 100 complete control

CC(=O)Oc1c(C)nn(C)c(=O)c1-c1c(C)sc2c(C)cc(C)cc12 [Compound 27]
15: Plant response rating, Corn (corn (Zea mays); [17])
5: Plant response rating, Corn (corn (Zea mays); [20]) | Corn plant response rating (corn (Zea mays); [22])
0: Plant response rating, Wheat [6] | Wheat plant response rating [6] | Corn plant response rating (corn (Zea mays); [15]) | Plant response rating, Corn (corn (Zea mays); [16]) | Plant response rating, Corn (corn (Zea mays); [18]) | Plant response rating, Corn (corn (Zea mays); [19]) | Corn plant response rating (corn (Zea mays); [21])
70: Plant response rating, Kochia (kochia (Kochia scoparia); [10])
40: Kochia plant response rating (kochia (Kochia scoparia); [12])
90: Plant response rating, Barnyardgrass [1, 10] | Barnyardgrass plant response rating [1, 11] | Barnyardgrass plant response rating [1, 12] | Plant response rating, Foxtail, Giant [2, 10] | Foxtail, Giant plant response rating [2, 11] | Foxtail, Giant plant response rating [2, 12] | Kochia plant response rating (kochia (Kochia scoparia); [11]) | Plant response rating, Kochia (kochia (Kochia scoparia); [13]) | Plant response rating, Pigweed [3, 10] | Ragweed plant response rating [4, 12] | Plant response rating, Blackgrass [7] | Blackgrass plant response rating [7] | Plant response rating, Ryegrass, Italian [9, 16] | Plant response rating, Ryegrass, Italian [9, 17] | Plant response rating, Ryegrass, Italian [9, 19] | Plant response rating, Ryegrass, Italian [9, 20]
85: Plant response rating, Ryegrass, Italian [9, 18] | Ryegrass, Italian plant response rating [9, 22]
100: Plant response rating, Barnyardgrass [1, 13] | Plant response rating, Foxtail, Giant [2, 13] | Pigweed plant response rating [3, 11] | Pigweed plant response rating [3, 12] | Plant response rating, Pigweed [3, 13] | Plant response rating, Ragweed [4, 10] | Ragweed plant response rating [4, 11] | Plant response rating, Ragweed [4, 13] | Plant response rating, Ryegrass, Italian [5, 14] | Ryegrass, Italian plant response rating [5, 11] | Ryegrass, Italian plant response rating [5, 12] | Plant response rating, Ryegrass, Italian [5, 13] | Plant response rating, Galium [8] | Galium plant response rating [8]
95: Ryegrass, Italian plant response rating [9, 21]
80: Ryegrass, Italian plant response rating [9, 15]

CCC(=O)Oc1c(C)nn(C)c(=O)c1-c1c(C)sc2c(C)cc(C)cc12 [Compound 28]
85: Plant response rating, Ryegrass, Italian [9, 18] | Ryegrass, Italian plant response rating [9, 22]
0: Plant response rating, Wheat [6] | Wheat plant response rating [6] | Plant response rating, Corn (corn (Zea mays); [18]) | Plant response rating, Corn (corn (Zea mays); [19])
15: Plant response rating, Corn (corn (Zea mays); [17]) | Corn plant response rating (corn (Zea mays); [21])
30: Plant response rating, Corn (corn (Zea mays); [20])
95: Plant response rating, Ryegrass, Italian [9, 17] | Plant response rating, Ryegrass, Italian [9, 20] | Ryegrass, Italian plant response rating [9, 21]
80: Plant response rating, Barnyardgrass [1, 10] | Plant response rating, Ragweed [4, 10] | Ryegrass, Italian plant response rating [9, 15]
5: Corn plant response rating (corn (Zea mays); [15]) | Plant response rating, Corn (corn (Zea mays); [16]) | Corn plant response rating (corn (Zea mays); [22])
100: Foxtail, Giant plant response rating [2, 12] | Plant response rating, Foxtail, Giant [2, 13] | Pigweed plant response rating [3, 12] | Plant response rating, Pigweed [3, 13] | Ragweed plant response rating [4, 11] | Ryegrass, Italian plant response rating [5, 11] | Ryegrass, Italian plant response rating [5, 12] | Plant response rating, Ryegrass, Italian [5, 13] | Plant response rating, Galium [8] | Galium plant response rating [8]
50: Kochia plant response rating (kochia (Kochia scoparia); [12])
90: Barnyardgrass plant response rating [1, 11] | Barnyardgrass plant response rating [1, 12] | Plant response rating, Barnyardgrass [1, 13] | Plant response rating, Foxtail, Giant [2, 10] | Foxtail, Giant plant response rating [2, 11] | Kochia plant response rating (kochia (Kochia scoparia); [11]) | Plant response rating, Kochia (kochia (Kochia scoparia); [13]) | Plant response rating, Pigweed [3, 10] | Pigweed plant response rating [3, 11] | Ragweed plant response rating [4, 12] | Plant response rating, Ragweed [4, 13] | Plant response rating, Ryegrass, Italian [5, 14] | Plant response rating, Blackgrass [7] | Blackgrass plant response rating [7] | Plant response rating, Ryegrass, Italian [9, 16] | Plant response rating, Ryegrass, Italian [9, 19]
70: Plant response rating, Kochia (kochia (Kochia scoparia); [10])

Source: US10597388B2, “Pyridazinone herbicides” (FMC CORPORATION, priority 2014, dated 2020)
